Assay results reported in patent US8623862B2, “Derivatives of N-[(1H-pyrazol-1-yl)aryl]-1H-indole or 1H-indazole-3-carboxamide, preparation thereof and applications thereof in therapeutics” (Sanofi, priority 2011, dated 2014).
Counter-ions that a name gives are not always drawn. Like-named read-outs stand apart in the source and are kept apart here.

Columns and labels:
platelet aggregation [1] = experiment: Inhibition of platelet aggregation ex vivo (rat blood); type: in vivo; conditions: for inhibition at 10 mg/kg: read-out: Inhibition of platelet aggregation ex vivo (rat blood) in %, Gavage (oral) 10 mg/kg
Experimental: Inhibition of Platelet Aggregation Ex Vivo (Rat Blood)
Male rats of the Sprague-Dawley strain, weighing 250-300 g, are used at a rate of 6 animals per batch. Each test compound is diluted in a solution of glucose-containing water (glucose 5%) containing 5% of cremophore and 3% of glycofurol.
The compounds according to the invention are administered by stomach tube (10 ml/kg at 1 mg/ml) two hours before taking the sample or by infusion (1 ml/kg at 10 mg/ml) two hours before taking the sample.
The platelet-rich plasma (PRP) is obtained by centrifugation of the blood at 300 g for 5 minutes, and the measurements of platelet aggregation are performed as described above.
The results are calculated using the area under the curve of absorbance measured for 6 minutes, and expressed as percentage (%) of inhibition.

platelet aggregation [2] = experiment: Inhibition of platelet aggregation in vitro (rat blood); type: cell-based;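 on Inhibition of platelet aggregation in vitro (rat blood) in μM: aggregation induced by ADP added as 4 µL of a 250 µM solution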
Outline: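 Platelet-rich plasma from male Sprague-Dawley rats (250-300 g), prepared by centrifugation at 300 g for 5 minutes. Aggregation measured at 37° C in an aggregometer. Percentage inhibition derived from area under the absorbance curve over 6 minutes.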

[3] = rat, gavage (oral), 10 mg/kg, two hours before taking the sample
[4] = rat, 10 mg/kg, two hours before taking the sample
[5] = rat blood, in vitro, read-out: Inhibition of platelet aggregation in vitro (rat blood);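 on Inhibition of platelet aggregation in vitro (rat blood) in μM: aggregation induced by ADP added as 4 µL of a 250 µM solution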
[6] = Rattus norvegicus, Platelet, po, 2 h
[7] = Rattus norvegicus, Platelet, 0.1 h, read-out: Inhibition of platelet aggregation in vitro (rat blood) in μM
[8] = 0.1 h, rat platelet-rich plasma, ADP-induced aggregation, area under the curve of absorbance for 6 minutes, read-out: Inhibition of platelet aggregation in vitro (rat blood);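 on Inhibition of platelet aggregation in vitro (rat blood) in μM: aggregation induced by ADP added as 4 µL of a 250 µM solution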
[9] = Platelet, 2 h, rat, gavage (oral), 10 mg/kg, two hours before taking the sample
[10] = rat platelet-rich plasma, ADP-induced aggregation, area under the curve of absorbance for 6 minutes, read-out: Inhibition of platelet aggregation in vitro (rat blood);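 on Inhibition of platelet aggregation in vitro (rat blood) in μM: aggregation induced by ADP added as 4 µL of a 250 µM solution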

IC50 (platelet aggregation [2]; [5]) [µM] | Structure (SMILES) | Inhibition of platelet aggregation ex vivo (rat blood) in %, Gavage (oral) 10 mg/kg (platelet aggregation [1]; [3]) [%] | further results
0.32 | CCCC(=O)c1cnn(-c2ccc(NC(=O)c3cn(CC(=O)N4CCN(C)CC4)c4ccc(Cl)cc34)cc2)c1C.Cl [Compound 115] | 50.6 | Inhibition of platelet aggregation ex vivo (rat blood) in %, Infusion (Intravenous) 10 mg/kg (platelet aggregation [1]; [4]): 78.2%
0.18 | CCCC(=O)c1cnn(-c2ccc(NC(=O)c3cn(CC(=O)N4CCN(CCOC)CC4)c4ccc(C)cc34)cc2)c1C.Cl [Compound 119] | 61.1 | –
0.37 | CCCC(=O)c1cnn(-c2ccc(NC(=O)c3cn(CC(=O)N4CCN(C)CC4C)c4ccc(Cl)cc34)cc2)c1C.Cl (centres unmarked) [Compound 177] | 63.9 | –
0.17 | CCCC(=O)c1cnn(-c2ccc(NC(=O)c3cn(CC(=O)N4CCN(C(C)COC)CC4)c4ccc(Cl)cc34)cc2)c1C.Cl (centres unmarked) [Compound 179] | 76.1 | –
0.3 | CCCC(=O)c1cnn(-c2ccc(NC(=O)c3cn(CC(=O)N4CCN(C)CC4)c4cc(C)c(C)cc34)cc2)c1C.Cl [Compound 107] | 36.8 | Inhibition of platelet aggregation ex vivo (rat blood) in %, Infusion (Intravenous) 10 mg/kg (platelet aggregation [1]; [4]): 57.8%
0.25 | CCCC(=O)c1cnn(-c2ccc(NC(=O)c3cn(CC(=O)N4CCN(CCOCCOC)CC4)c4ccc(Cl)cc34)cc2)c1C.Cl [Compound 145] | 53.7 | –
0.13 | CCCC(=O)c1cnn(-c2ccc(NC(=O)c3cn(CC(=O)N4CCN(CCF)CC4)c4ccc(Cl)cc34)cc2)c1C.Cl [Compound 142] | 76.5 | –
0.24 | CCCC(=O)c1cnn(-c2ccc(NC(=O)c3cn(CC(=O)N4CCN(C(C)(C)COC)CC4)c4ccc(Cl)cc34)cc2)c1C.Cl [Compound 180] | 65.1 | –
0.32 | CCCC(=O)c1cnn(-c2ccc(NC(=O)c3cn(CC(=O)N4CCN(CCF)CC4)c4ccc(C)cc34)cc2)c1C.Cl [Compound 133] | 74.2 | –
0.54 | CCCC(=O)c1cnn(-c2ccc(NC(=O)c3cn(CC(=O)N4CCN(C)CC4)c4ccc(Cl)cc34)c(C#N)c2)c1C [Compound 219] | 65.1 | –
0.26 | CCCC(=O)c1cnn(-c2ccc(NC(=O)c3cn(CC(=O)N4CCN(CCO)CC4)c4ccc(C)cc34)cc2)c1C [Compound 116] | – | –
0.56 | CCOC(=O)c1cnn(-c2ccc(NC(=O)c3cn(CC(=O)N4CCN(C)CC4)c4ccc(Cl)cc34)cc2)c1C [Compound 218] | – | –

The next lines start with the compound.

Structure (SMILES) | IC50 (platelet aggregation [2]; [5]) [µM] | Inhibition of platelet aggregation ex vivo (rat blood) in %, Gavage (oral) 10 mg/kg (platelet aggregation [1]; [3]) [%] | further results
CCCC(=O)c1cnn(-c2ccc(NC(=O)c3cn(CC(=O)N4CCN(C)CC4)c4ccc(Cl)cc34)nn2)c1C [Compound 28, N-[6-(4-Butyryl-5-methyl-1H-pyrazol-1-yl)pyridazin-3-yl]-5-chloro-1-[2-(4-methylpiperazin-1-yl)-2-oxoethyl]-1H-indole-3-carboxamide hydrochloride] | – | – | inhibition at 3 mg/kg (platelet aggregation [1]; Rattus norvegicus, Platelet, iv, 2 h, read-out: Inhibition of platelet aggregation ex vivo (rat blood) in %, Infusion (Intravenous) 3 mg/kg): 79%; inhibition at 10 mg/kg (platelet aggregation [1]; [6]): 73.5%; IC50 (platelet aggregation [2]; [7]): 0.06 µM
CCCC(=O)c1cnn(-c2ccc(NC(=O)c3cn(CC(=O)N4CCN(Cc5cc(C)on5)CC4)c4ccc(Cl)cc34)cc2)c1C.Cl [Compound 166] | – | 72.0 | –
CCCC(=O)c1cnn(-c2ccc(NC(=O)c3cn(CC(=O)N4CCN(C)C(C(=O)NC)C4)c4ccc(Cl)cc34)cc2)c1C (centres unmarked) [Compound 272, N-[4-(4-butyryl-5-methyl-1H-pyrazol-1-yl)phenyl]-5-chloro-1-{2-[4-methyl-3-(methylcarbamoyl)piperazin-1-yl]-2-oxoethyl}-1H-indole-3-carboxamide] | – | – | melting point: 274 °C; IC50 (platelet aggregation [2]; [8]): 0.21 µM
CCCC(=O)c1cnn(-c2ccc(NC(=O)c3cn(CC(=O)N4CCN(CCOC(C)=O)CC4)c4ccc(Cl)cc34)cc2)c1C.Cl [Compound 275, 2-{4-[(3-{[4-(4-Butyryl-5-methyl-1H-pyrazol-1-yl)phenyl]carbamoyl}-5-chloro-1H-indol-1-yl)acetyl]piperazin-1-yl}ethyl acetate hydrochloride] | – | – | melting point: 160 °C; IC50 (platelet aggregation [2]; [8]): 0.2 µM
CCCC(=O)c1cnn(-c2ccc(NC(=O)c3cn(CC(=O)N4CCN(CCOC)CC4)c4ccc(Cl)cc34)cc2)c1C [Compound 105, N-[4-(4-Butyryl-5-methyl-1H-pyrazol-1-yl)phenyl]-5-chloro-1-{2-[4-(2-methoxyethyl)piperazin-1-yl]-2-oxoethyl}-1H-indole-3-carboxamide hydrochloride] | – | – | inhibition at 10 mg/kg (platelet aggregation [1]; [9]): 67.9%; IC50 (platelet aggregation [2]; Platelet, rat blood, in vitro, read-out: Inhibition of platelet aggregation in vitro (rat blood)): 0.32 µM
CCCC(=O)c1cnn(-c2ccc(NC(=O)c3cn(CC(=O)N4CCN5CCNC(=O)C5C4)c4ccc(Cl)cc34)cc2)c1C.Cl (centres unmarked) [Compound 273, N-[4-(4-Butyryl-5-methyl-1H-pyrazol-1-yl)phenyl]-5-chloro-1-[2-oxo-2-(9-oxooctahydro-2H-pyrazino[1,2-a]pyrazin-2-yl)ethyl]-1H-indole-3-carboxamide hydrochloride] | – | – | melting point: 230 °C; IC50 (platelet aggregation [2]; [8]): 0.29 µM
CCCC(=O)c1cnn(-c2ccc(NC(=O)c3cn(CC(=O)N4CCN(CCOC)CC4)c4ccc(Cl)cc34)nn2)c1C [Compound 29, N-[6-(4-Butyryl-5-methyl-1H-pyrazol-1-yl)pyridazin-3-yl]-5-chloro-1-{2-[4-(2-methoxyethyl)piperazin-1-yl]-2-oxoethyl}-1H-indole-3-carboxamide hydrochloride] | – | – | inhibition at 1 mg/kg (platelet aggregation [1]; Rattus norvegicus, Platelet, iv, 2 h, read-out: Inhibition of platelet aggregation ex vivo (rat blood) in %, Infusion (Intravenous) 1 mg/kg): 76%; inhibition at 10 mg/kg (platelet aggregation [1]; [6]): 86.3%; IC50 (platelet aggregation [2]; [7]): 0.08 µM
CCCC(=O)c1cnn(-c2ccc(NC(=O)c3cn(CC(=O)N4CC(C)N(C)C(C)C4)c4ccc(Cl)cc34)cc2)c1C.Cl (centres unmarked) [Compound 262, N-[4-(4-Butyryl-5-methyl-1H-pyrazol-1-yl)phenyl]-5-chloro-1-[2-oxo-2-(3,4,5-trimethylpiperazin-1-yl)ethyl]-1H-indole-3-carboxamide hydrochloride] | – | – | inhibition at 10 mg/kg (platelet aggregation [1]; [9]): 58.8%; melting point: 217 °C
CCCC(=O)c1cnn(-c2ccc(NC(=O)c3cn(CC(=O)O)c4ccc(C)cc34)cc2)c1C [Compound 11] | – | – | Inhibition of platelet aggregation ex vivo (rat blood) in %, Infusion (Intravenous) 10 mg/kg (platelet aggregation [1]; [4]): 40.7%; IC50 (platelet aggregation [2]; [10]): 9.6 µM
CCCC(=O)c1cnn(-c2ccc(NC(=O)c3cn(CC(=O)N4CCCC4C(F)(F)F)c4ccc(Cl)cc34)cc2)c1C (centres unmarked) [Compound 170] | 0.12 | 71.5 | –
CCCC(=O)c1cnn(-c2ccc(NC(=O)c3cn(CC(=O)N4CCN(CCOC(F)(F)F)CC4)c4ccc(Cl)cc34)nn2)c1C [Compound 30, N-[6-(4-Butyryl-5-methyl-1H-pyrazol-1-yl)pyridazin-3-yl]-5-chloro-1-(2-oxo-2-{4-[2-(trifluoromethoxy)ethyl]piperazin-1-yl}ethyl)-1H-indole-3-carboxamide hydrochloride] | – | – | IC50 (platelet aggregation [2]; [7]): 0.1 µM
CCCC(=O)c1cnn(-c2ccc(NC(=O)c3cn(CC(=O)N4CCN5CCN(C)C(=O)C5C4)c4ccc(Cl)cc34)cc2)c1C (centres unmarked) [Compound 274, N-[4-(4-Butyryl-5-methyl-1H-pyrazol-1-yl)phenyl]-5-chloro-1-[2-(8-methyl-9-oxooctahydro-2H-pyrazino[1,2-a]pyrazin-2-yl)-2-oxoethyl]-1H-indole-3-carboxamide hydrochloride] | – | – | inhibition at 10 mg/kg (platelet aggregation [1]; [9]): 82.7%; IC50 (platelet aggregation [2]; [8]): 0.1 µM
CCCC(=O)c1cnn(-c2cnc(NC(=O)c3cn(CC(=O)N4CCN(C)CC4)c4ccc(Cl)cc34)cn2)c1C [Compound 27, N-[5-(4-Butyryl-5-methyl-1H-pyrazol-1-yl)pyrazin-2-yl]-5-chloro-1-[2-(4-methylpiperazin-1-yl)-2-oxoethyl]-1H-indole-3-carboxamide hydrochloride] | – | – | IC50 (platelet aggregation [2]; [7]): 0.3 µM
CCCC(=O)c1cnn(-c2ccc(NC(=O)c3cn(CC(=O)N4CCN(Cc5noc(C)n5)CC4)c4ccc(Cl)cc34)nn2)c1C [Compound 82] | – | – | IC50 (platelet aggregation [2]; [10]): 0.05 µM
CCCC(=O)c1cnn(-c2ccc(NC(=O)c3cn(CC(=O)N4CCNC(=O)C4)c4ccc(Cl)cc34)nn2)c1C [Compound 64] | – | – | IC50 (platelet aggregation [2]; [10]): 0.06 µM
CCCC(=O)c1cnn(-c2ccc(NC(=O)c3cn(CC(=O)N4CCNCC4)c4ccc(C)cc34)cc2)c1C [Compound 243] | – | – | IC50 (platelet aggregation [2]; [10]): 0.54 µM
CCCC(=O)c1cnn(-c2ccc(NC(=O)c3cn(CC(=O)N4CC(C)N(CCOC)C(C)C4)c4ccc(Cl)cc34)cc2)c1C.Cl (centres unmarked) | – | – | melting point: 187 °C
CCCC(=O)c1cnn(-c2ccc(NC(=O)c3cn(CC(=O)N4CCN(Cc5ccc(F)cc5)CC4)c4ccc(C)cc34)cc2)c1C.Cl [Compound 147] | 0.19 | 74.9 | –
CCCC(=O)c1cnn(-c2ccc(NC(=O)c3cn(CC(=O)N(C)C)c4ccc(N(C)C)cc34)cc2)c1C [Compound 178] | 0.5 | – | –
